Results taken from PubChem BioAssay AID1259407 (Chemical Carcinogenesis Research Information System (CCRIS), 2018).
Active and inactive are the calls of the source. No rule for the calls is given here.

Tested on: CCRIS mutagenicity, Ames/micronucleus/aberration tests
Experiment: CCRIS mutagenicity studies
[1] = Test System: AMES SALMONELLA TYPHIMURIUM, Strain/Indicator: TA100, Metabolic Activation: NONE, Method: STANDARD PLATE

C1CC[C@H]2O[C@H]2C1
mutagenic call (Test System: AMES SALMONELLA TYPHIMURIUM, Strain/Indicator: TA98, Metabolic Activation: HAMSTER, LIVER, S-9, AROCLOR 1254, Method: STANDARD PLATE): active; positive | mutagenic call (Test System: AMES SALMONELLA TYPHIMURIUM, Strain/Indicator: TA98, Metabolic Activation: NONE, Method: PREINCUBATION): inactive; negative | mutagenic call (Test System: AMES SALMONELLA TYPHIMURIUM, Strain/Indicator: TA98, Metabolic Activation: RAT LIVER S-9, PHENOBARBITAL AND BETA-NAPHTHOFLAVONE, Method: PREINCUBATION): inactive; negative | mutagenic call (Test System: AMES SALMONELLA TYPHIMURIUM, Strain/Indicator: TA98, Metabolic Activation: RAT, LIVER, S-9, AROCLOR 1254, Method: STANDARD PLATE): active; positive | mutagenic call (Test System: AMES SALMONELLA TYPHIMURIUM, Strain/Indicator: TA100, Metabolic Activation: HAMSTER, LIVER, S-9, AROCLOR 1254, Method: STANDARD PLATE): active; positive | mutagenic call (Test System: AMES SALMONELLA TYPHIMURIUM, Strain/Indicator: TA100, Metabolic Activation: NONE, Method: PREINCUBATION): active; positive | mutagenic call [1]: active; positive | mutagenic call (Test System: AMES SALMONELLA TYPHIMURIUM, Strain/Indicator: TA100, Metabolic Activation: RAT LIVER S-9, PHENOBARBITAL AND BETA-NAPHTHOFLAVONE, Method: PREINCUBATION): active; positive | mutagenic call (Test System: AMES SALMONELLA TYPHIMURIUM, Strain/Indicator: TA100, Metabolic Activation: RAT, LIVER, S-9, AROCLOR 1254, Method: STANDARD PLATE): active; positive | mutagenic call (Test System: AMES SALMONELLA TYPHIMURIUM, Strain/Indicator: TA1535, Metabolic Activation: NONE, Method: PREINCUBATION): active; positive | mutagenic call (Test System: AMES SALMONELLA TYPHIMURIUM, Strain/Indicator: TA1535, Metabolic Activation: NONE, Method: STANDARD PLATE): active; positive | mutagenic call (Test System: AMES SALMONELLA TYPHIMURIUM, Strain/Indicator: TA1535, Metabolic Activation: RAT LIVER S-9, PHENOBARBITAL AND BETA-NAPHTHOFLAVONE, Method: PREINCUBATION): active; positive | mutagenic call (Test System: AMES SALMONELLA TYPHIMURIUM, Strain/Indicator: TA1537, Metabolic Activation: NONE, Method: PREINCUBATION): inactive; negative | mutagenic call (Test System: AMES SALMONELLA TYPHIMURIUM, Strain/Indicator: TA1537, Metabolic Activation: RAT LIVER S-9, PHENOBARBITAL AND BETA-NAPHTHOFLAVONE, Method: PREINCUBATION): inactive; negative | mutagenic call (Test System: AMES SALMONELLA TYPHIMURIUM, Strain/Indicator: TA1538, Metabolic Activation: NONE, Method: PREINCUBATION): inactive; negative | mutagenic call (Test System: AMES SALMONELLA TYPHIMURIUM, Strain/Indicator: TA1538, Metabolic Activation: RAT LIVER S-9, PHENOBARBITAL AND BETA-NAPHTHOFLAVONE, Method: PREINCUBATION): inactive; negative | mutagenic call (Test System: E. COLI, Strain/Indicator: WP2UVRA, Metabolic Activation: NONE, Method: PREINCUBATION): inactive; negative | mutagenic call (Test System: E. COLI, Strain/Indicator: WP2UVRA, Metabolic Activation: RAT LIVER S-9, PHENOBARBITAL AND BETA-NAPHTHOFLAVONE, Method: PREINCUBATION): active; positive | mutagenic call (Test System: MOUSE LYMPHOMA, Strain/Indicator: L5178Y (TK+/TK-), Metabolic Activation: NONE, Method: SUSPENSION/PLATE): active; positive. reevaluation of results: positive | mutagenic call (Test System: Mouse lymphoma, Strain/Indicator: L5178Y (tk+/tk-), Metabolic Activation: Rat, Liver, S-9, Aroclor 1254, Method: Suspension/plate): active; positive

CCC(C)c1ccc(/C=C/c2ccc(N)cc2)cc1 (centres undefined)
mutagenic call (Test System: AMES SALMONELLA TYPHIMURIUM, Strain/Indicator: TA98, Metabolic Activation: NONE, Method: STANDARD PLATE): inactive; negative | mutagenic call (Test System: AMES SALMONELLA TYPHIMURIUM, Strain/Indicator: TA98, Metabolic Activation: RAT, LIVER, S-9, AROCLOR, Method: STANDARD PLATE): active; positive | mutagenic call [1]: inactive; negative | mutagenic call (Test System: AMES SALMONELLA TYPHIMURIUM, Strain/Indicator: TA100, Metabolic Activation: RAT, LIVER, S-9, AROCLOR, Method: STANDARD PLATE): active; positive
